According to patent US12264159B2, “Functionalized heterocycles as antiviral agents” (Enanta Pharmaceuticals, Inc., priority 2018, dated 2025):

Experiments:
[1] = Compound induced cellular toxicity in HepG2 cells, ATPlite 1Step; type: cell-based; settings: human, three days exposure, 50% reduction of total ATP vs no drug controls
Protocol: At day 3, post seeding cells are treated with ATPlite 1Step according to the manufacturer's instructions.

HBV in 2.2.15 cells = assay: 2.2.15 cells: viral product in cell lysates quantified via quantitative real time PCR; type: cell-based, hepatitis B virus (HBV); settings: Hepatitis B virus, 120 h, day 5 post treatment, 50% reduction of viral product vs no drug controls, readout (qPCR, HBsAg or HBeAg) not specified for the column
Summary of the method: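 HBV product was measured at day 5 by lysate qPCR or by supernatant HBsAg/HBeAg ELISA, in 2.2.15 cells seeded at 35,000/well and exposed to 5-fold compound dilution series (0.5% DMSO). EC50 is 50% reduction of viral product relative to untreated controls.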

Row | SMILES | CC50 at 3 days [1] | EC50 (HBV in 2.2.15 cells)
1 | COc1ccc(O)c(-c2cc3n(n2)C[C@@H](C(C)(C)C)n2cc(C(=O)O)c(=O)cc2-3)c1 [Example 56, (R)-6-(tert-butyl)-2-(2-hydroxy-5-methoxyphenyl)-10-oxo-5,6-dihydro-10H-pyrazolo[1,5-a]pyrido[2,2-c]pyrazine-12-carboxylic acid] | > 25000 nM | < 100 nM
2 | CC(C)(C)[C@@H]1Cn2nc(-c3cnco3)cc2-c2cc(=O)c(C(=O)O)cn21 [Example 7, (R)-6-(tert-butyl)-2-(oxazol-5-yl)-10-oxo-5,6-dihydro-10H-pyrazolo[1,5-a]pyrido[2,2-c]pyrazine-12-carboxylic acid] | > 25000 nM | 200 to 1000 nM
3 | CC(C)(C)[C@@H]1Cn2nc(C3CC3)c(-c3ccoc3)c2-c2cc(=O)c(C(=O)O)cn21 [Example 152, (R)-6-(tert-butyl)-2-cyclopropyl-1-(furan-3-yl)-10-oxo-5,6-dihydro-10H-pyrazolo[1,5-a]pyrido[2,1-c]pyrazine-9-carboxylic acid] | > 25000 nM | < 100 nM
4 | CC(C)(C)[C@@H]1Cn2nc(-c3ccc(F)c(F)c3)cc2-c2cc(=O)c(C(=O)O)cn21 [Example 60, (R)-6-(tert-butyl)-2-(3,4-difluorophenyl)-10-oxo-5,6-dihydro-10H-pyrazolo[1,5-a]pyrido[2,2-c]pyrazine-12-carboxylic acid] | > 25000 nM | < 100 nM
5 | CC(C)(C)[C@@H]1Cn2nc(-c3ccc(F)c4c3OCO4)cc2-c2cc(=O)c(C(=O)O)cn21 [Example 22, (R)-6-(tert-butyl)-2-(7-fluorobenzo[d][1,3]dioxol-4-yl)-10-oxo-5,6-dihydro-10H-pyrazolo[1,5-a]pyrido[2,2-c]pyrazine-12-carboxylic acid] | > 25000 nM | < 100 nM
6 | CC(C)[C@@H]1Cn2nc(C3CC3)c(-c3cccnc3)c2-c2cc(=O)c(C(=O)O)cn21 [Example 140, (R)-2-cyclopropyl-6-isopropyl-10-oxo-1-(pyridin-3-yl)-5,6-dihydro-10H-pyrazolo[1,5-a]pyrido[2,1-c]pyrazine-9-carboxylic acid] | > 25000 nM | < 100 nM
7 | CCCOc1ccccc1-c1cc2n(n1)C[C@@H](C(C)(C)C)n1cc(C(=O)O)c(=O)cc1-2 [Example 77, (R)-6-(tert-butyl)-10-oxo-2-(2-propoxyphenyl)-5,6-dihydro-10H-pyrazolo[1,5-a]pyrido[2,2-c]pyrazine-12-carboxylic acid] | > 25000 nM | < 100 nM
8 | CC(C)(C)[C@@H]1Cn2nc(-c3ccc(F)c(F)c3F)cc2-c2cc(=O)c(C(=O)O)cn21 [Example 44, (R)-6-(tert-butyl)-10-oxo-2-(2,3,4-trifluorophenyl)-5,6-dihydro-10H-pyrazolo[1,5-a]pyrido[2,2-c]pyrazine-12-carboxylic acid] | > 25000 nM | < 100 nM
9 | CC(C)(C)[C@@H]1Cn2nc(-c3ccccc3CO)cc2-c2cc(=O)c(C(=O)O)cn21 [Example 84, (R)-6-(tert-butyl)-2-(2-(hydroxymethyl)phenyl)-10-oxo-5,6-dihydro-10H-pyrazolo[1,5-a]pyrido[2,2-c]pyrazine-12-carboxylic acid] | > 25000 nM | 200 to 1000 nM
10 | CC(C)[C@@H]1Cn2nc(C3CC3)c(-c3ccoc3)c2-c2cc(=O)c(C(=O)O)cn21 [Example 132, (R)-2-cyclopropyl-1-(furan-3-yl)-6-isopropyl-10-oxo-5,6-dihydro-10H-pyrazolo[1,5-a]pyrido[2,1-c]pyrazine-9-carboxylic acid] | > 25000 nM | < 100 nM
11 | CC(C)(C)[C@@H]1Cn2nc(C3CC3)c(-c3ccccc3F)c2-c2cc(=O)c(-c3ncn[nH]3)cn21 [Example 198, (R)-6-(tert-butyl)-2-cyclopropyl-1-(2-fluorophenyl)-9-(1H-1,2,4-triazol-5-yl)-5,6-dihydro-10H-pyrazolo[1,5-a]pyrido[2,1-c]pyrazin-10-one] | > 25000 nM | < 100 nM
